System: yeast genes (expressed mRNA)
Assay: DNA chip measurement of expressed mRNA of yeast genes after culture with a toxic chemical substance
Assay type: cell-based, Saccharomyces cerevisiae S288C
How it was run: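 Fluorescence ratio, treated over untreated, read by chip scanner; ratio of two or more counted significant. Cells: S288C yeast, YPD, 25° C, chemical added at log phase for 2 h at growth-inhibiting, sublethal level. Cy3/Cy5-labeled cDNA from oligo-dT-purified mRNA.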

Which results are given for `N#Cc1c(Cl)c(Cl)c(Cl)c(C#N)c1Cl` [(9), 2,4,5,6-Tetrachloro-1,3-benzenedicarbonitrile]?
The level of expressed mRNA in the presence of chemical substance/The level of expressed mRNA in the absence of chemical substance (yeast gene YAL034C, cultured two hours with substance): 3.0; The level of expressed mRNA in the presence of chemical substance/The level of expressed mRNA in the absence of chemical substance (yeast gene YAL053W, cultured two hours with substance): 1.4; The level of expressed mRNA in the presence of chemical substance/The level of expressed mRNA in the absence of chemical substance (yeast gene YAR027W, cultured two hours with substance): 2.3; The level of expressed mRNA in the presence of chemical substance/The level of expressed mRNA in the absence of chemical substance (yeast gene YAR028W, cultured two hours with substance): 1.0; The level of expressed mRNA in the presence of chemical substance/The level of expressed mRNA in the absence of chemical substance (yeast gene YBL048W, cultured two hours with substance): 7.2; The level of expressed mRNA in the presence of chemical substance/The level of expressed mRNA in the absence of chemical substance (yeast gene YBL065W, cultured two hours with substance): 20.8; The level of expressed mRNA in the presence of chemical substance/The level of expressed mRNA in the absence of chemical substance (yeast gene YBL075C (stress protein genes)): 60.3; The level of expressed mRNA in the presence of chemical substance/The level of expressed mRNA in the absence of chemical substance (yeast gene YBL107C, cultured two hours with substance): 1.0; The level of expressed mRNA in the presence of chemical substance/The level of expressed mRNA in the absence of chemical substance (yeast gene YBR008C (transport facilitation protein gene)): 54.6; The level of expressed mRNA in the presence of chemical substance/The level of expressed mRNA in the absence of chemical substance (yeast gene YBR072W (stress protein genes)): 29.4; The level of expressed mRNA in the presence of chemical substance/The level of expressed mRNA in the absence of chemical substance (yeast gene YBR096W, cultured two hours with the chemical substance): 1.2; The level of expressed mRNA in the presence of chemical substance/The level of expressed mRNA in the absence of chemical substance (yeast gene YBR256C): 18.1; The level of expressed mRNA in the presence of chemical substance/The level of expressed mRNA in the absence of chemical substance (yeast gene YCR082W, cultured two hours with substance): 4.3; The level of expressed mRNA in the presence of chemical substance/The level of expressed mRNA in the absence of chemical substance (yeast gene YCR107W, cultured for two hours with substance): 196.6; The level of expressed mRNA in the presence of chemical substance/The level of expressed mRNA in the absence of chemical substance (yeast gene YDL059C, DNA repair protein genes, cultured two hours with substance): 10.5; The level of expressed mRNA in the presence of chemical substance/The level of expressed mRNA in the absence of chemical substance (yeast gene YDL072C, cultured two hours with substance): 1.1; The level of expressed mRNA in the presence of chemical substance/The level of expressed mRNA in the absence of chemical substance (yeast gene YDL204W, cultured two hours with substance): 2.3; The level of expressed mRNA in the presence of chemical substance/The level of expressed mRNA in the absence of chemical substance (yeast gene YDL218W, cultured two hours with substance): 72.5; The level of expressed mRNA in the presence of chemical substance/The level of expressed mRNA in the absence of chemical substance (yeast gene YDL222C, cultured two hours with substance): 1.9; The level of expressed mRNA in the presence of chemical substance/The level of expressed mRNA in the absence of chemical substance (yeast gene YDL234C, cultured two hours with substance): 4.6; The level of expressed mRNA in the presence of chemical substance/The level of expressed mRNA in the absence of chemical substance (yeast gene YDL243C, cultured for two hours with substance): 64.2; The level of expressed mRNA in the presence of chemical substance/The level of expressed mRNA in the absence of chemical substance (yeast gene YDR018C, cultured two hours with substance): 2.3; The level of expressed mRNA in the presence of chemical substance/The level of expressed mRNA in the absence of chemical substance (yeast gene YDR031W, cultured two hours with substance): 1.1; The level of expressed mRNA in the presence of chemical substance/The level of expressed mRNA in the absence of chemical substance (yeast gene YDR070C, cultured two hours with substance): 13.9; The level of expressed mRNA in the presence of chemical substance/The level of expressed mRNA in the absence of chemical substance (yeast gene YDR194C, mitochondria-located protein gene, cultured two hours with substance): 2.8; The level of expressed mRNA in the presence of chemical substance/The level of expressed mRNA in the absence of chemical substance (yeast gene YDR214W, cultured two hours with substance): 5.5; The level of expressed mRNA in the presence of chemical substance/The level of expressed mRNA in the absence of chemical substance (yeast gene YDR253C): 14.8; The level of expressed mRNA in the presence of chemical substance/The level of expressed mRNA in the absence of chemical substance (yeast gene YDR330W, cultured two hours with substance): 3.9; The level of expressed mRNA in the presence of chemical substance/The level of expressed mRNA in the absence of chemical substance (yeast gene YDR340W, cultured two hours with substance): 1.4; The level of expressed mRNA in the presence of chemical substance/The level of expressed mRNA in the absence of chemical substance (yeast gene YDR350C, cultured two hours with substance): 2.8; The level of expressed mRNA in the presence of chemical substance/The level of expressed mRNA in the absence of chemical substance (yeast gene YDR374C, cultured two hours with substance): 10.4; The level of expressed mRNA in the presence of chemical substance/The level of expressed mRNA in the absence of chemical substance (yeast gene YDR391C, cultured two hours with substance): 1.5; The level of expressed mRNA in the presence of chemical substance/The level of expressed mRNA in the absence of chemical substance (yeast gene YDR411C, cultured two hours with substance): 0.7; The level of expressed mRNA in the presence of chemical substance/The level of expressed mRNA in the absence of chemical substance (yeast gene YDR486C, cultured two hours with substance): 2.5; The level of expressed mRNA in the presence of chemical substance/The level of expressed mRNA in the absence of chemical substance (yeast gene YDR494W, cultured two hours with substance): 1.2; The level of expressed mRNA in the presence of chemical substance/The level of expressed mRNA in the absence of chemical substance (yeast gene YDR511W, cultured two hours with substance): 2.5; The level of expressed mRNA in the presence of chemical substance/The level of expressed mRNA in the absence of chemical substance (yeast gene YDR513W): 4.6; The level of expressed mRNA in the presence of chemical substance/The level of expressed mRNA in the absence of chemical substance (yeast gene YDR545W, cultured two hours with substance): 1.8; The level of expressed mRNA in the presence of chemical substance/The level of expressed mRNA in the absence of chemical substance (yeast gene YEL001C, cultured two hours with substance): 2.0; The level of expressed mRNA in the presence of chemical substance/The level of expressed mRNA in the absence of chemical substance (yeast gene YER004W, cultured two hours with substance): 4.5; The level of expressed mRNA in the presence of chemical substance/The level of expressed mRNA in the absence of chemical substance (yeast gene YER035W, cultured two hours with substance): 1.2; The level of expressed mRNA in the presence of chemical substance/The level of expressed mRNA in the absence of chemical substance (yeast gene YER038C, cultured two hours with substance): 0.7; The level of expressed mRNA in the presence of chemical substance/The level of expressed mRNA in the absence of chemical substance (yeast gene YER079W, cultured two hours with substance): 5.3; The level of expressed mRNA in the presence of chemical substance/The level of expressed mRNA in the absence of chemical substance (yeast gene YER096W, metabolism protein genes): 7.5; The level of expressed mRNA in the presence of chemical substance/The level of expressed mRNA in the absence of chemical substance (yeast gene YER103W (stress protein genes)): 20.3; The level of expressed mRNA in the presence of chemical substance/The level of expressed mRNA in the absence of chemical substance (yeast gene YER106W, cultured two hours with substance): 0.4; The level of expressed mRNA in the presence of chemical substance/The level of expressed mRNA in the absence of chemical substance (yeast gene YER158C, cultured two hours with substance): 2.1; The level of expressed mRNA in the presence of chemical substance/The level of expressed mRNA in the absence of chemical substance (yeast gene YER163C, cultured two hours with substance): 5.4; The level of expressed mRNA in the presence of chemical substance/The level of expressed mRNA in the absence of chemical substance (yeast gene YER175C, cultured two hours with substance): 1.9; The level of expressed mRNA in the presence of chemical substance/The level of expressed mRNA in the absence of chemical substance (yeast gene YFL006W, cultured two hours with substance): 3.2
